Data on three compounds can be found in US11931376B1, “Methods for the treatment of chronic kidney disease” (RENATUS INC., priority 2022, dated 2024).

The structures appear in SMILES notation.

One data set has as its system Murine mesangial cells. The experiment in a line: Cholesterol efflux in kidney mesangial cells (flow cytometry). The class given is cell-based, C57BL/6 mice. The conditions noted are these: mesangial cells loaded with NBD-CC for 3 hours, cyclodextrin 5 mg/ml. On the procedure:
Murine mesangial cells derived from the kidney of wild-type C57BL/6 mice were maintained in DMEM, 10% fetal bovine serum (FBS), 100 U/ml penicillin G, 100 μg/ml streptomycin, and 2 mM L-glutamine. The cells were seeded at a density of 10^6 cells/well one day before treatment with NBD-CC. The cells were treated with 100 μg of NBD-CC per 10^6 cells for 3 hours and then washed thoroughly twice. Then, cyclodextrins were treated at a concentration of 5 mg/ml. For the assessment of cholesterol efflux and efflux-mediating proteins ABCA1 and ABCG1, flow cytometry was performed.

The subject of data set [1] is macrophage cell line (Raw264.7). The experiment in a line: Cell viability assay (CCK-8). It counts as cell-based. The settings on record: cyclodextrin 20 mg/ml, 24 hours, 37° C. The method, then:
The cells were seeded in a 96-well plate at a density of 5×10^4 cells and 24 hours later cyclodextrin were treated at a concentration of 20 mg/ml for 24 hours at 37° C. CCK-8 agent was added, 10 μl per well. After 3 hours, absorbance at 450 nm was measured to assess cellular viability.

Data set [2] relates to red blood cells (whole blood). The experiment in a line: Hemolysis assay. The class given is cell-based, C57/BL6 mice. The settings on record: cyclodextrin 50 mg/ml, 1 hour, 37° C., absorbance at 540 nm. On the procedure:
Whole blood from wilt-type C57/BL6 mice was used for assessment of hemolytic activity of cyclodextrins. The whole blood samples (300 μl) were mixed with each cyclodextrin at a concentration of 50 mg/ml and incubated for 1 hour at 37° C. After centrifugation at 3,000 g for 5 minutes, the absorbance at 540 nm of the supernatant was measured.

For the next data set, the system named is albuminuria. The experiment in a line: Albuminuria in diabetic kidney disease mouse model. The class given is in vivo, db/db mice. The settings on record: subcutaneous 2 g/kg twice a week for 4 weeks. On the procedure:
To investigate the effects of cyclodextrins on albuminuria, 8-week-old male db/db mice were used to model diabetes type II, which is susceptible to albuminuria. In the experimental setup, Oligo-GCD (4103 Da), Oligo-HPGCD (3825 Da) and HPBCD-B were subcutaneously injected at a dose of 2 g/kg twice a week for 4 weeks. Control mice were given PBS only. After the treatment is completed, 24-hour urine samples were collected and the concentration of albumin in the urine was measured (FIG. 8A).

Regarding `CC(O)COC[C@H]1O[C@@H]2O[C@H]3[C@H](O)[C@@H](O)[C@@H](O[C@H]4[C@H](O)[C@@H](O)[C@@H](O[C@H]5[C@H](O)[C@@H](O)[C@@H](O[C@H]6[C@H](O)[C@@H](O)[C@@H](O[C@H]7[C@H](O)[C@@H](O)[C@@H](O[C@H]8[C@H](O)[C@@H](O)[C@@H](O[C@H]1[C@H](O)[C@H]2O)O[C@@H]8COCC(C)O)O[C@@H]7COCC(C)O)O[C@@H]6COCC(C)O)O[C@@H]5COCC(C)O)O[C@@H]4COCC(C)O)O[C@@H]3COCC(C)O` (single isomer, unassigned) [HPBCD-A, hydroxypropyl-beta-cyclodextrin], in the data set with Murine mesangial cells, the cellular cholesterol content is 54.1%. In addition, in data set [1], the cell viability result is “induce cell viability loss”. Besides, the hemolytic activity entry in data set [2] is “disrupt the plasma membrane and induce hemolysis”.

With `CC(O)COC[C@H]1O[C@@H]2O[C@H]3[C@H](O)[C@@H](O)[C@@H](O[C@H]4[C@H](O)[C@@H](O)[C@@H](O[C@H]5[C@H](O)[C@@H](O)[C@@H](O[C@H]6[C@H](O)[C@@H](O)[C@@H](O[C@H]7[C@H](O)[C@@H](O)[C@@H](O[C@H]8[C@H](O)[C@@H](O)[C@@H](O[C@H]1[C@H](O)[C@H]2O)O[C@@H]8COCC(C)O)O[C@@H]7COCC(C)O)O[C@@H]6COCC(C)O)O[C@@H]5COCC(C)O)O[C@@H]4COCC(C)O)O[C@@H]3COCC(C)O` (single isomer, unassigned) [HPBCD-B, hydroxypropyl-beta-cyclodextrin], the “ACR reduction compared to control” value with albuminuria stood at 22.6%. In addition, the “albumin/creatinine ratio (ACR)” value with albuminuria (urine at end of week 4) was 190.9 µg/mg. In the data set on Murine mesangial cells, this compound returned a cellular cholesterol content of 48.2%. For the same compound, the cell viability result in data set [1] is reported as “induce cell viability loss”. Besides, in data set [2], the hemolytic activity entry is “disrupt the plasma membrane and induce hemolysis”.

Compound `CC(O)COC[C@H]1O[C@@H]2O[C@H]3[C@H](O)[C@@H](O)[C@@H](O[C@H]4[C@H](O)[C@@H](O)[C@@H](O[C@H]5[C@H](O)[C@@H](O)[C@@H](O[C@H]6[C@H](O)[C@@H](O)[C@@H](O[C@H]7[C@H](O)[C@@H](O)[C@@H](O[C@H]8[C@H](O)[C@@H](O)[C@@H](O[C@H]1[C@H](O)[C@H]2O)O[C@@H]8COCC(C)O)O[C@@H]7COCC(C)O)O[C@@H]6COCC(C)O)O[C@@H]5COCC(C)O)O[C@@H]4COCC(C)O)O[C@@H]3COCC(C)O` (single isomer, unassigned) [HPBCD-C, hydroxypropyl-beta-cyclodextrin] gave a cellular cholesterol content in the data set with Murine mesangial cells of 50.5%. In addition, the cell viability entry in data set [1] was “induce cell viability loss”. In addition, the hemolytic activity entry in data set [2] was “disrupt the plasma membrane and induce hemolysis”.
